Data set [1] addresses T1, Nuclear receptor subfamily 1 group I member 2 (Homo sapiens, UniProt O75469).
T1 sequence (O75469 whole entry): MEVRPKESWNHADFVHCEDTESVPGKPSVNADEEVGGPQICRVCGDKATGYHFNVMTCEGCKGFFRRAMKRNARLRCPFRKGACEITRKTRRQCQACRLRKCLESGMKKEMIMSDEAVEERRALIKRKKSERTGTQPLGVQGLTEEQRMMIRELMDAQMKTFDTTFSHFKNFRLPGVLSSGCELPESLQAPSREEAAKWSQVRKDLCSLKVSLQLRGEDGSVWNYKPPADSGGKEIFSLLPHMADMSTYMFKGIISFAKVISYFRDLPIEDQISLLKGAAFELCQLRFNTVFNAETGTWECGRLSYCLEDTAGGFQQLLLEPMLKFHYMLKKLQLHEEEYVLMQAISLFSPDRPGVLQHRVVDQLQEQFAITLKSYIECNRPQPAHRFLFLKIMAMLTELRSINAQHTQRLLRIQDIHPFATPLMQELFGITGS
The data set can be described thus: Induction of PXR transactivation.

A short description of data set [2]: AUC in mouse at 20 mg/kg after 4 hrs. The class given is ADME, organism-based. Further details: time < 4 hr, dose 20 mg/kg. The settings on record: plasma.
The target in data set [3] is Cytochrome P450 3A4 (Homo sapiens, UniProt P08684). Nature of the data set: Inhibition of human recombinant CYP3A4 in human liver microsomes using BFC as a substrate. (Microsomes from liver hold many membrane-bound enzymes, among them those of drug oxidation.)
Chain of Cytochrome P450 3A4 (P08684 whole entry): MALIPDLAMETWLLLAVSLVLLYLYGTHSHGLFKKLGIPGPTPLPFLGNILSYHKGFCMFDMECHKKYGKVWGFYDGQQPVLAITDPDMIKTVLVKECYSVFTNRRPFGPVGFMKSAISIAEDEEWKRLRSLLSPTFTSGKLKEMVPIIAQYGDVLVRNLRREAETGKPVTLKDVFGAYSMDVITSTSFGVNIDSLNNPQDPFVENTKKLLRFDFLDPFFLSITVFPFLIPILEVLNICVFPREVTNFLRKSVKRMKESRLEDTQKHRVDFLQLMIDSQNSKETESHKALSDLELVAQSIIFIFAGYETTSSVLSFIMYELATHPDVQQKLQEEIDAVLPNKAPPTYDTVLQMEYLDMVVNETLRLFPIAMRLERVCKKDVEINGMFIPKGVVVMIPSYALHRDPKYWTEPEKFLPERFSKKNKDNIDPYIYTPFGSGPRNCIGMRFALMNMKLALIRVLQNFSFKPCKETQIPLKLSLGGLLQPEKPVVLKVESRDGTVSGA
Data set [4] in a line: Antiproliferative activity against transgenic mouse SAL cells overexpressing human IGF1R assessed as [3H]thymidine incorporation after 72 hrs.
A short description of data set [5]: Protein binding in human plasma at 10 uM. Format: ADME, cell-free. The note with it: read-out: PPB.
The target of data set [6] is PXR (nuclear receptor subfamily 1 group I member 2) (Homo sapiens, UniProt O75469). The data set can be described thus: Induction of PXR transactivation at 10 uM relative to rifampicin. The settings on record: read-out: Activity.
Data set [7] in a line: Apparent permeability across human CaCo2 cells. The class given is ADME, cell-based. The settings on record: Caco-2. (Caco-2 cells form a polarised layer with tight junctions and transporters.)
Data set [8] can be described thus: Protein binding in mouse plasma at 10 uM by equilibrium dialysis. The class given is ADME, cell-free. The note with it: read-out: PPB (converted). Background: In equilibrium dialysis free small molecules cross a membrane that holds back macromolecules.
For data set [9], the system named is Hepatocyte. The data set can be described thus: Increase in CYP3A4 mRNA expression level in human hepatocytes. Format: functional, cell-based.

The term EC20 denotes the concentration needed for an effect of 20%. One may read the AUC as the area under the concentration-time curve, a measure of exposure. Read a high AUC as more exposure. One may read the IC50 as the point on the concentration scale where inhibition reaches its midpoint. `COc1ccc([C@H](O)CNc2cc[nH]c(=O)c2-c2nc3c(C)cc(C4CCN(CCCF)CC4)cc3[nH]2)cc1Cl` displayed an EC20 in [1] above 50000 nM. The AUC at 4 h in [2] amounted to 0.28 µM·h. For the same compound, the IC50 in data set [3] stood at 10000 nM; in data set [4] it was 40 nM.
In data set [1], `Cc1cc(C2CCN(CCCF)CC2)cc2[nH]c(-c3c(NC[C@@H](O)c4cccc(Cl)c4)cc[nH]c3=O)nc12` showed a concentration for an effect of 20% (EC20) above 50000 nM. The IC50 in data set [4] was determined as 76 nM.
As usually defined, the Papp is the rate of passage across a membrane or cell layer, normalised by area and donor concentration. Take `Cc1cc(N2CCOCC2)cc2[nH]c(-c3c(NC[C@@H](O)c4cccc(Cl)c4)cc[nH]c3=O)nc12`: the fraction unbound at 10 µM is below 0.002 in data set [5] and below 0.001 in data set [8]. Moreover, in data set [1], the EC20 was found to be 1100 nM. In data set [2], the area under the curve (AUC) at 4 h was found to be 50 µM·h. Besides, in data set [6], the activity at 10 µM stood at 125%. Moreover, in data set [7], the Papp was found to be 1.8 ×10⁻⁶ cm/s. Also, the IC50 in data set [4] amounted to 110 nM. In data set [9], the Activity result is “Dose-dependent effect”.
For the compound `COCCN1CCC(c2cc(C)c3nc(-c4c(NC[C@@H](O)c5ccc(OC)c(Cl)c5)cc[nH]c4=O)[nH]c3c2)CC1`, in [1], the EC20 is above 50000 nM. For the same compound, the area under the curve (AUC) at 4 h in data set [2] came out at 0.49 µM·h. Further, the IC50 in data set [3] is 7700 nM; in data set [4], 13 nM.
On to `COCCN1CCC(c2cc(C)c3nc(-c4c(NC[C@@H](O)c5cccc(Cl)c5)cc[nH]c4=O)[nH]c3c2)CC1`, for which, in data set [1], the EC20 was above 50000 nM. In addition, the IC50 in data set [3] came to 11000 nM; in data set [4], 217 nM.

These data come from ChEMBL document CHEMBL1140084, “Discovery and evaluation of 4-(2-(4-chloro-1H-pyrazol-1-yl)ethylamino)-3-(6-(1-(3-fluoropropyl)piperidin-4-yl)-4-methyl-1H-benzo[d]imidazol-2-yl)pyridin-2(1H)-one (BMS-695735), an orally efficacious inhibitor of insulin-like growth factor-1 receptor kinase with broad spectrum in vivo antitumor …” (J Med Chem, 2008).
